According to ChEMBL document CHEMBL1152925, “Vladimuliecins A and B: cytotoxic pentacyclic pregnanols from Vladimiria muliensis” (J Nat Prod, 2009):

Assays:
Type in all cases: functional, cell-based
HL-60 = experiment: Cytotoxicity against human HL60 cells after 48 hrs by SRB assay
SMMC-7721 = experiment: Cytotoxicity against human SMMC7721 cells after 48 hrs by SRB assay
HeLa = experiment: Cytotoxicity against human HeLa cells after 48 hrs by SRB assay
[1] = Homo sapiens, HL-60, 48 h, read-out: IC50
[2] = Homo sapiens, SMMC-7721, 48 h, read-out: IC50

Compound `CC(=O)O[C@H](C)[C@H]1CC[C@@]2(O)[C@]1(C)CC[C@@H]1[C@@]3(C)CC[C@@H]4C[C@@]43[C@H](OC(C)=O)C[C@]12O` [VLADIMULIECIN A] has an IC50 (HL-60; [1]) of 99 µM, an IC50 (SMMC-7721; [2]) of 98.6 µM and an IC50 (HeLa; hela) of 167 µM.
Work on `C[C@@H](O)[C@H]1CC[C@@]2(O)[C@]1(C)CC[C@@H]1[C@@]3(C)CC[C@@H]4C[C@@]43[C@H](O)C[C@]12O` yielded an IC50 (HL-60; hl-60) of 138 µM, an IC50 (SMMC-7721; smmc-7721) of 101 µM and an IC50 (HeLa; hela) of 165 µM.
`CO[C@@]12[C@H](COC(N)=O)C3=C(C(=O)C(C)=C(N)C3=O)N1C[C@@H]1N[C@@H]12` [MITOMYCIN] showed an IC50 (HL-60; [1]) of 1.5 µM, an IC50 (SMMC-7721; [2]) of 5.4 µM and an IC50 (HeLa; Homo sapiens, HeLa, 48 h, read-out: IC50) of 3.3 µM.
Compound `CC(=O)O[C@H](C)[C@H]1CC[C@@]2(O)[C@]1(C)CC[C@@H]1[C@@]3(C)CC[C@@H]4C[C@@]43[C@H](O)C[C@]12O` [VLADIMULIECIN B] has an IC50 (HL-60; [1]) of 88 µM, an IC50 (SMMC-7721; smmc-7721) of 104 µM and an IC50 (HeLa; hela) of 121 µM.
